Results on 18 compounds are retold here after patent US20120201749A1, “NP-1 Antagonists and Their Therapeutic Use” (priority 2009, published 2012).

In general, IC50 refers to the concentration at which inhibition is half-maximal. A high value points to a need for much substance. As usually defined, the inhibition is the relative decrease from the control value, in per cent.

The assay deals with NP-1 (Homo sapiens, UniProt O14786). The assay is described as follows: Biotinylated-VEGF-A165 (bt-VEGF-A165) binding to NP-1. The conditions noted are these: for inhibition at 3 µM: 3 μM compound, read-out: Screen (% inhibition at 3 μM); for inhibition at 30 µM: read-out: Screen (% inhibition at 30 μM). The protocol: Human prostate carcinoma DU145 cells were cultured in growth medium (RPMI 1640 containing 10% FBS and L-glutamine). DU145 cells were seeded at the density of 2×10^4 cells per well (96-well plates) in 0.1 ml growth medium and transfected with adenovirus vectors containing the full-length open-reading frame of human NP-1. The Ad.NP-1-transfected cells grew for 2 days prior to a binding assay.
Sequence of NP-1 (O14786 22-923): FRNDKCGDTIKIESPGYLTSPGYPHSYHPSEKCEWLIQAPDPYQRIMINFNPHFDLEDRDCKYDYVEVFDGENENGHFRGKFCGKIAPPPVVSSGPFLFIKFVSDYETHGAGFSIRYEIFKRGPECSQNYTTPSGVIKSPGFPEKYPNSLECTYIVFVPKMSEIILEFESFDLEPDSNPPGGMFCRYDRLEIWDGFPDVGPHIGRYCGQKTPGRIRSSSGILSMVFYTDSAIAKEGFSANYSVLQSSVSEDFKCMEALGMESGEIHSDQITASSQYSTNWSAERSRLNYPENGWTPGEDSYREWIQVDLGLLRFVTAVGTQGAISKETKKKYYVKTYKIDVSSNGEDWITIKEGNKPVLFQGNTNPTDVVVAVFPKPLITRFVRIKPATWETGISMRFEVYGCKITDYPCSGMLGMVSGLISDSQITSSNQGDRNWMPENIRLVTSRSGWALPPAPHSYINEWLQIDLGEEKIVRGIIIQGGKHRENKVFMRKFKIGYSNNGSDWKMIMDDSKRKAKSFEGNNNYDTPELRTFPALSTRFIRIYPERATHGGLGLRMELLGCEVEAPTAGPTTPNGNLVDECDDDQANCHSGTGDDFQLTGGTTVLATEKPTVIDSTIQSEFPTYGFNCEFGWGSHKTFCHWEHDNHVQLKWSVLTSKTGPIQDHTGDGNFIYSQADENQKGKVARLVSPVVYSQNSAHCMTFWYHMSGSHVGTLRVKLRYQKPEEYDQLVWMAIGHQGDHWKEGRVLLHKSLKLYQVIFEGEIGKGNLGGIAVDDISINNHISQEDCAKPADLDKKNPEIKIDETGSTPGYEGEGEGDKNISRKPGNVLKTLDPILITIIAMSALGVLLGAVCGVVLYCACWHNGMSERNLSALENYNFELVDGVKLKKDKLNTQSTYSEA
Confluent Ad.NP-1-transfected cells in 96-well plates were washed twice with phosphate-buffered saline (PBS). The various concentrations of compounds diluted in binding medium (Dulbecco's modified Eagle's medium, 25 mM HEPES pH 7.3 containing 0.1% BSA) were added, followed by addition of 2 nM of bt-VEGF-A165. After 2 h of incubation at room temperature, the medium was aspirated and washed three times with PBS. The bound bt-VEGF-A165 to NP-1 was detected by streptavidin-horseradish peroxidase conjugates and the enzyme substrate, and measured using a Tecan Genios plate reader at A450 nm with a reference wavelength at A595 nm. Non-specific binding was determined in the presence of 100-fold excess unlabelled VEGF-A165.
The 96-well plates were pre-coated with NP1 protein at 3 μg/ml overnight at 4° C. On the following day, the plates were treated with blocking buffer (PBS containing 1% BSA) and washed three times with wash buffer (PBS containing 0.1% Tween-20). The various concentrations of compounds diluted in PBS containing 1% DMSO were added, followed by addition of 0.25 nM of bt-VEGF-A165. After 2 h of incubation at room temperature, the plates were washed three times with wash buffer. The bound bt-VEGF-A165 to NP-1 was detected by streptavidin-horseradish peroxidase conjugates and the enzyme substrate, and measured using a Tecan Genios plate reader at A450 nm with a reference wavelength at A595 nm. Nonspecific binding was determined in the absence of NP-1 coated wells of the plates.

For `N=C(N)NCCC[C@H](NC(=O)c1sccc1NS(=O)(=O)c1cc(-c2ccccc2CN2CCC(C(=O)O)CC2)cc2c1OCC2)C(=O)O` [Compound 1, 1-(2-{7-[2-((S)-1-Carboxy-4-guanidino-butylcarbonyl)-thiophen-3-ylsulfamoyl]-2,3-dihydro-benzofuran-5-yl}-benzyl)-piperidine-4-carboxylic acid], the IC50 came to 0.007 µM and the inhibition at 3 µM turned out to be 100%.

Turning to `N=C(N)NCCC[C@H](NC(=O)c1sccc1NS(=O)(=O)c1cc(-c2ccccc2CN2CCC(CC(=O)O)CC2)cc2c1OCC2)C(=O)O` [Compound 2, (S)-2-[(3-{5-[2-(4-Carboxymethyl-piperidin-1-ylmethyl)-phenyl]-2,3-dihydro-benzofuran-7-sulfonylamino}-thiophene-2-carbonyl)-amino]-5-guanidino-pentanoic acid], the inhibition at 3 µM was 96%.

Take `N=C(N)NCCC[C@H](NC(=O)c1sccc1NS(=O)(=O)c1cc(-c2cccc(CN3CCC(C(=O)O)CC3)c2)cc2c1OCC2)C(=O)O` [Compound 3, 1-(3-{7-[2-((S)-1-Carboxy-4-guanidino-butylcarbamoyl)-thiophen-3-ylsulfamoyl]-2,3-dihydro-benzofuran-5-yl}-benzyl)-piperidine-4-carboxylic acid]: the 50% inhibitory concentration (IC50) worked out at 0.142 µM and the inhibition at 3 µM was found to be 89%.

As to `N=C(N)NCCC[C@H](NC(=O)c1sccc1NS(=O)(=O)c1cc(-c2cccc(CN3CCC(CC(=O)O)CC3)c2)cc2c1OCC2)C(=O)O` [Compound 4, (S)-2-[(3-{5-[3-(4-Carboxymethyl-piperidin-1-ylmethyl)-phenyl]-2,3-dihydro-benzofuran-7-sulfonylamino}-thiophene-2-carbonyl)-amino]-5-guanidino-pentanoic acid], the half-maximal inhibitory concentration (IC50) was 0.072 µM and the inhibition at 3 µM is 80%.

Turning to `COC(=O)C1CCN(Cc2ccccc2-c2cc3c(c(S(=O)(=O)Nc4ccsc4C(=O)N[C@@H](CCCNC(=N)N)C(=O)O)c2)OCC3)CC1` [Compound 5, 1-(2-{7-[2-((S)-1-Carboxy-4-guanidino-butylcarbamoyl)-thiophen-3-ylsulfamoyl]-2,3-dihydro-benzofuran-5-yl}-benzyl)-piperidine-4-carboxylic acid methyl ester], the 50% inhibitory concentration (IC50) is 0.014 µM and the inhibition at 3 µM is 92%. Further, the inhibition at 30 µM (30 μM compound) was 100%.

Turning to `COC(=O)CC1CCN(Cc2ccccc2-c2cc3c(c(S(=O)(=O)Nc4ccsc4C(=O)N[C@@H](CCCNC(=N)N)C(=O)O)c2)OCC3)CC1` [Compound 6, (S)-5-Guanidino-2-[(3-{5-[2-(4-methoxycarbonylmethyl-piperidin-1-ylmethyl)-phenyl]-2,3-dihydro-benzofuran-7-sulfonylamino}-thiophene-2-carbonyl)-amino]-pentanoic acid], the IC50 worked out at 0.003 µM and the inhibition at 3 µM was 95%.

On to `COC(=O)C1CCN(Cc2cccc(-c3cc4c(c(S(=O)(=O)Nc5ccsc5C(=O)N[C@@H](CCCNC(=N)N)C(=O)O)c3)OCC4)c2)CC1` [Compound 7, 1-(3-{7-[2-((S)-1-Carboxy-4-guanidino-butylcarbamoyl)-thiophen-3-ylsulfamoyl]-2,3-dihydro-benzofuran-5-yl}-benzyl)-piperidine-4-carboxylic acid methyl ester], for which the IC50 is 0.005 µM and the inhibition at 3 µM was determined as 94%.

`N=C(N)NCCC[C@H](NC(=O)c1sccc1NS(=O)(=O)c1cc(-c2ccccc2CN2CCN(Cc3ccncc3)CC2)cc2c1OCC2)C(=O)O` [Compound 8, (S)-5-Guanidino-2-[(3-{5-[2-(4-pyridin-4-ylmethyl-piperazin-1-ylmethyl)-phenyl]-2,3-dihydro-benzofuran-7-sulfonylamino}-thiophene-2-carbonyl)-amino]-pentanoic acid]: the IC50 is 1.8 µM. In addition, for the setting “30 μM compound”, the inhibition at 30 µM is 90%.

In turn, `N=C(N)NCCC[C@H](NC(=O)c1sccc1NS(=O)(=O)c1cc(-c2ccccc2CNCc2cccnc2)cc2c1OCC2)C(=O)O` [Compound 9, (S)-5-Guanidino-2-({3-[5-(2-{[(pyridin-3-ylmethyl)-amino]-methyl}-phenyl)-2,3-dihydro-benzofuran-7-sulfonylamino]-thiophene-2-carbonyl}-amino)-pentanoic acid] gave an IC50 of 3 µM. Where the note is “30 μM compound”, the inhibition at 30 µM came to 97%.

For `N=C(N)NCCC[C@H](NC(=O)c1sccc1NS(=O)(=O)c1cc(-c2ccccc2CN2CCN(c3cccnc3)CC2)cc2c1OCC2)C(=O)O` [Compound 10, (S)-5-Guanidino-2-[(3-{5-[2-(4-pyridin-3-yl-piperazin-1-ylmethyl)-phenyl]-2,3-dihydro-benzofuran-7-sulfonylamino}-thiophene-2-carbonyl)-amino]-pentanoic acid], the IC50 came out at 2 µM. In addition, under “30 μM compound”, the inhibition at 30 µM amounted to 97%.

`N=C(N)NCCC[C@H](NC(=O)c1sccc1NS(=O)(=O)c1cc(-c2cccc(CN3CCN(Cc4cccnc4)CC3)c2)cc2c1OCC2)C(=O)O` [Compound 11, (S)-5-Guanidino-2-[(3-{5-[3-(4-pyridin-3-ylmethyl-piperazin-1-ylmethyl)-phenyl]-2,3-dihydro-benzofuran-7-sulfonylamino}-thiophene-2-carbonyl)-amino]-pentanoic acid] came in with a 50% inhibitory concentration (IC50) of 1.5 µM. Besides, the inhibition at 30 µM (30 μM compound) was 98%.

The compound `N=C(N)NCCC[C@H](NC(=O)c1sccc1NS(=O)(=O)c1cc(-c2cccc(CNCc3cccnc3)c2)cc2c1OCC2)C(=O)O` [Compound 12, (S)-5-Guanidino-2-({3-[5-(3-{[(pyridin-3-ylmethyl)-amino]-methyl}-phenyl)-2,3-dihydro-benzofuran-7-sulfonyl-amino]-thiophene-2-carbonyl}-amino)-pentanoic acid] returned an IC50 of 1.2 µM. In addition, under “30 μM compound”, the inhibition at 30 µM amounted to 96%.

`N=C(N)NCCC[C@H](NC(=O)c1sccc1NS(=O)(=O)c1cc(-c2cccc(CN3CCN(c4cccnc4)CC3)c2)cc2c1OCC2)C(=O)O` [Compound 13, (S)-5-Guanidino-2-[(3-{5-[3-(4-pyridin-3-yl-piperazin-1-ylmethyl)-phenyl]-2,3-dihydro-benzofuran-7-sulfonylamino}-thiophene-2-carbonyl)-amino]-pentanoic acid] gave a half-maximal inhibitory concentration (IC50) of 0.591 µM. For the same compound, the inhibition at 30 µM (30 μM compound) turned out to be 100%.

On to `N=C(N)NCCC[C@H](NC(=O)c1sccc1NS(=O)(=O)c1cc(-c2ccccc2CN2CCN(c3ccccn3)CC2)cc2c1OCC2)C(=O)O` [Compound 14, (S)-5-Guanidino-2-[(3-{5-[2-(4-pyridin-2-yl-piperazin-1-ylmethyl)-phenyl]-2,3-dihydro-benzofuran-7-sulfonylamino}-thiophene-2-carbonyl)-amino]-pentanoic acid], for which the inhibition at 3 µM turned out to be 67%. Moreover, the inhibition at 30 µM (30 μM compound) was 100%.

In the case of `N=C(N)NCCC[C@H](NC(=O)c1sccc1NS(=O)(=O)c1cc(-c2ccccc2CN2CCN(c3ccncc3)CC2)cc2c1OCC2)C(=O)O` [Compound 15, (S)-5-Guanidino-2-[(3-{5-[2-(4-pyridin-4-yl-piperazin-1-ylmethyl)-phenyl]-2,3-dihydro-benzofuran-7-sulfonylamino}-thiophene-2-carbonyl)-amino]-pentanoic acid], the inhibition at 3 µM was determined as 62%. For the same compound, the inhibition at 30 µM (30 μM compound) turned out to be 97%.

As for `N=C(N)NCCC[C@H](NC(=O)c1sccc1NS(=O)(=O)c1cc(-c2ccccc2CN2CCN(Cc3ccccn3)CC2)cc2c1OCC2)C(=O)O` [Compound 16, (S)-5-Guanidino-2-[(3-{5-[2-(4-pyridin-2-ylmethyl-piperazin-1-ylmethyl)-phenyl]-2,3-dihydro-benzofuran-7-sulfonylamino}-thiophene-2-carbonyl)-amino]-pentanoic acid], the inhibition at 3 µM came out at 64%. For the same compound, for the setting “30 μM compound”, the inhibition at 30 µM amounted to 95%.

For `N=C(N)NCCC[C@H](NC(=O)c1sccc1NS(=O)(=O)c1cc(-c2ccccc2CN2CCN(Cc3ccncc3)CC2)cc2c1OCC2)C(=O)O` [Compound 17, (S)-5-Guanidino-2-[(3-{5-[2-(4-pyridin-4-ylmethyl-piperazin-1-ylmethyl)-phenyl]-2,3-dihydro-benzofuran-7-sulfonylamino}-thiophene-2-carbonyl)-amino]-pentanoic acid], the inhibition at 3 µM stood at 56%. Also, the “Screen (% inhibition at 30 μM)” value (30 μM compound, 30 µM) was found to be 94%.

As for `N=C(N)NCCC[C@H](NC(=O)c1sccc1NS(=O)(=O)c1cc(-c2ccccc2CNCc2ccccn2)cc2c1OCC2)C(=O)O` [Compound 18, (S)-5-Guanidino-2-({3-[5-(2-{[(pyridin-2-ylmethyl)-amino]-methyl}-phenyl)-2,3-dihydro-benzofuran-7-sulfonylamino]-thiophene-2-carbonyl}-amino)-pentanoic acid], the inhibition at 3 µM turned out to be 70%. Moreover, the inhibition at 30 µM (30 μM compound) is 100%.
